Experiment: xn = mol fraction of the nth substance listed
Conditions: 101 kPa, Liquid, Vibrating tube method

CCCC[N+]1(C)CCCC1.FC(F)(F)C(F)(F)[P-](F)(F)(F)(C(F)(F)C(F)(F)F)C(F)(F)C(F)(F)F + CNC=O
mass density [kg/m3]
Conditions	293.15 K	298.15 K	303.15 K	308.15 K	313.15 K	318.15 K	323.15 K
x1 = 0.017	1058.37	1053.77	1049.14	1044.53	1039.79	1035.11	1030.3
x1 = 0.038	1115.08	1110.31	1105.47	1100.72	1095.79	1091	1085.98
x1 = 0.064	1172.33	1167.39	1162.43	1157.5	1152.45	1147.53	1142.27
x1 = 0.1395	1288.62	1283.34	1278.09	1272.85	1267.61	1262.38	1256.78
x1 = 0.1994	1349.8	1344.44	1339.03	1333.6	1328.11	1322.58	1317.13
x1 = 0.2991	1419.35	1413.93	1408.4	1402.86	1397.22	1391.56	1385.88
x1 = 0.4005	1466.49	1460.95	1455.39	1449.79	1444.2	1438.48	1432.75
x1 = 0.5044	1501.13	1495.58	1490.07	1484.49	1478.87	1473.25	1467.48
x1 = 0.5964	1524.64	1519.12	1513.49	1507.92	1502.28	1496.79	1491.13
x1 = 0.6471	1535.54	1530.04	1524.39	1518.85	1513.18	1507.72	1502.01
x1 = 0.7548	1555.34	1549.77	1544.13	1538.58	1532.92	1527.43	1521.8
x1 = 0.8413	1568.65	1563.05	1557.45	1551.88	1546.25	1540.73	1535.12
x1 = 0.9029	1577.04	1571.47	1565.91	1560.34	1554.73	1549.18	1543.58

— the NIST ThermoML archive (doi:10.1021/je400803f)
